Results: US20240150286A1, “PEROXISOME PROLIFERATOR-ACTIVATED RECEPTOR GAMMA (PPARy) LIGANDS AND METHODS OF USE AS TREATMENTS FOR INSULIN RESISTANCE, OBESITY, FATTY LIVER DISEASE, AND TYPE 2 DIABETES” (The Board of Regents of the University of Oklahoma, priority 2022, published 2024)

Tests used:
[1] = molecular target: T1, PPARγ ligand-binding domain (LBD) (Homo sapiens, UniProt P37231); assay: In vitro competition binding assay (PolarScreen PPARγ-Competitor, fluorescence polarization)
T1 construct: purchased Thermo Fisher Scientific
T1 sequence (P37231 238-503 limits assumed): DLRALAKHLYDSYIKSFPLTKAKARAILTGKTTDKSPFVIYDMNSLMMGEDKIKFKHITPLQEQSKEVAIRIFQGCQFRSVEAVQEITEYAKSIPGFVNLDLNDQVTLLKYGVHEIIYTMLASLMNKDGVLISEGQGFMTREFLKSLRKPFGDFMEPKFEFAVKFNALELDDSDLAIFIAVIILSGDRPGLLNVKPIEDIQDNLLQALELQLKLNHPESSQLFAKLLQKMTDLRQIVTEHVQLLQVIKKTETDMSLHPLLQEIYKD
Protocol: The in vitro competition binding assays was performed using PolarScreen™ PPARγ-Competitor Assay Kit according to the manufacturer's instructions. Briefly, compounds at 2-fold titration serial concentrations were incubated with GST-tagged PPARγ ligand-binding domain (LBD, 34 nM) and Fluormone PPAR Green tracer (9 nM) for 4 hours in the dark at room temperature in a black 384-well assay plate (Corning Glass cat. no. 677). The florescence polarization value (mP) was measured at 485 nm (excitation) and at 535 nm (emission) using a microplate reader.

[2] = tested on: PPARγ S273 phosphorylation; assay: PPARγ S273 phosphorylation and phosphorylation-dependent genes in 3T3-L1 differentiated adipocytes; type: cell-based, mouse
Protocol: (§1) Total RNA (2 μg) was isolated from tissues or cells using TRIzol reagents (Life Technologies) and reverse transcribed using oligo d(T) primers (New England Biosystems) and SuperScript IV reverse transcription kit (Applied Biosystems). qPCR was performed in a CFX96 Touch Real-Time PCR detection system using SYBR Green mix (Applied Biosystems). The amplification program was as follows: initial denaturation at 95° C. for 15 min, followed by 40 cycles of 95° C. for 15 s, 60° C. for 1 min, and 40° C. for 30 s. Relative mRNA expression was determined by the ΔΔCt method normalized to TBP mRNA.

[3] = tested on: diet-induced obesity (DIO) mice; assay: Body weight, body composition and indirect calorimetry in DIO mice; type: in vivo, mouse
Protocol: (§2) C57BL/6J male mice were obtained from Jackson laboratory (Bar Harbor, ME) and maintained on a 12 h light (6:00 AM to 6:00 PM)—12 h dark (6:00 PM to 6:00 AM) cycle at an ambient temperature of 22±1° C. All animals had access to diet and water ad libitum. All procedures involving animals were approved by the Institutional Animal Care and Use Committee of the University of Oklahoma Health Science Center. All experiments were performed with age-matched male mice. The mice were fed a high-fat diet (HFD) (60% kcal fat, Bio-Serv, NJ, USA) starting from the age of 6 weeks until study end. […] Food intake was determined manually by measuring the amount of input food subtracting the amount of the food remaining in the food hopper and the crumbs on the bedding of the cage each day for three days during the 4th week of the treatment. Packed cell volume (PCV) was measured with blood drawn from tail on a LW Scientific E8 centrifuge (LW Scientific, Lawrenceville, Georgia, USA) microhematocrit centrifuge at the end of study. For all other measurements, the blood was drawn at the time of euthanization.
Body lean and fat composition was determined by EchoMRI test.
The mice were individually housed in chambers of a Promethion Core Monitoring system (Sable Systems, Las Vegas, NV, USA). After a 1-day acclimation period, their oxygen consumption and carbon dioxide production were measured for the next three consecutive days. The respiratory exchange ratio and energy expenditure were calculated using standard equations

[4] = tested on: primary preadipocytes isolated from iWAT and eWAT; assay: Browning gene expression in differentiated primary preadipocytes; type: cell-based, mouse; details: differentiated with WO95E vs DMSO
Protocol: 3T3-L1 preadipocytes were differentiated. In brief, cells at around 60%-70% confluence were induced for differentiation with DMEM containing 10% FBS, 1 μg/ml insulin, 1 μM dexamethasone, and 0.5 mM IBMX for 48 h in the presence or absence of compounds and were then exposed in maintenance medium (1 μg/mL insulin in 10% FBS/DMEM) containing compounds. The medium was renewed every 2 days for total 8 days of differentiation when the cells became differentiated and lipid droplets were apparent. For primary preadipocyte differentiation, isolation of primary preadipocytes was performed. Briefly, fat depots were digested in PBS containing collagenase D (1.5 U/ml) at 37° C. for 40-45 min. The primary cells were filtered through 70 μm cell strainer and centrifuge at 700 g to collect stromal vascular fraction (SVF). The SVF cell pellets were plated on collagen coated plates. […]
as §1, with “The amplification program was as follows: initial denaturation at 95° C. for 15 min, followed by 40 cycles of 95° C. for 15 s, 60° C. for 1 min, and 40° C. for 30 s.” left out, “mRNA. […]” for “mRNA.”

liver of DIO mice = assay: Liver steatosis in DIO mice (H&E histology, qRT-PCR); type: in vivo, mouse; details: vs vehicle
Protocol: as §2
Liver, heart, bone, adipose tissues were dissected and immediately fixed in 4% paraformaldehyde (Sigma-Aldrich), paraffin embedded, and stained with hematoxylin and eosin. For Immunofluorescence staining, the eWAT and iWAT paraffin sections were incubated with primary antibody (rabbit polyclonal to F4/80 [1:500, Cat #: 70076], Cell Signaling Technology) overnight at 4° C. after deparaffinization. […]
as §1, with “The amplification program was as follows: initial denaturation at 95° C. for 15 min, followed by 40 cycles of 95° C. for 15 s, 60° C. for 1 min, and 40° C. for 30 s.” left out, “mRNA. […]” for “mRNA.”

For Cc1c(C)n(Cc2ccc(-c3ccccc3C(=O)O)cc2)c2ccc(C(=O)NCc3cccc(O)c3)cc12 [WO95E, 4′-((5-((3-hydroxybenzyl)carbamoyl)-2,3-dimethyl-1H-indol-1-yl)methyl)-[1,1′-biphenyl]-2-carboxylic acid], the “IC50 fold lower than that of UHC1” value ([1]; WO95E vs UHC1) was “approximately 70 fold”, the IC50 ([1]; competition with Fluormone PPAR Green tracer, GST-PPARγ LBD 34 nM, read-out: half-maximum inhibitory concentration (IC50), binding to PPARγ LBD) was ~11 nM and the “mRNA levels of PPARγ phosphorylation-dependent genes (adiponectin, cycp2f2, Ddx-17, Rarres2, Selenbp1)” value ([2]; 3T3-L1, 10 μM, qRT-PCR) was “upregulation”. The “S273 phosphorylation of PPARγ” value ([2]; 3T3-L1 differentiated adipocytes, TNFα 10 ng/ml 1 h, compounds at 10 μM, Western blot) was “significantly inhibited”, the body weight ([3]; DIO mice on HFD, 15 mg/kg i.p. daily 4 weeks) was “reduced body weight” and the “fat mass (EchoMRI)” value ([3]; DIO mice, 15 mg/kg i.p. daily) was “significant decrease”. The “lean mass (EchoMRI)” value ([3]; DIO mice, 15 mg/kg i.p. daily) was “no noticeable change”, the daily food intake ([3]; DIO mice, 4th week of treatment, vs vehicle) was “same amount of daily food intake” and the “average oxygen consumption (VO2)” value ([3]; DIO mice, indirect calorimetry after 4-week treatment) was “higher”. The mean energy expenditure ([3]; DIO mice, indirect calorimetry, vs vehicle) was “significantly heightened”, the “average carbon dioxide production (VCO2)” value ([3]; DIO mice, indirect calorimetry, p value 0.08 for daytime) was “increased” and the “respiratory exchange ratio (RER)” value ([3]; DIO mice, vs vehicle, data not shown) was “similar”. For the same compound, the “overall activity (distance)” value ([3]; DIO mice, difference statistically insignificant) was “upward trend”, the “expression levels of Prdm16, UCP1, PCG1α, Ppara in iWAT adipocytes” value [4] was “significantly increased” and the “number of lipid droplets in the liver” value (liver of DIO mice; H&E) was “markedly reduced”. The “expression levels of PEPCK and G6PC in liver” value (liver of DIO mice) was “significantly decreased” and the “lipogenic genes FASN, SCD-1, ACC in liver” value (liver of DIO mice) was “down-regulated”.
